# Assay results published in ChEMBL document CHEMBL5316373, “Discovery of novel bicyclic[3.3.0]proline peptidyl α-ketoamides as potent 3CL-protease inhibitors for SARS-CoV-2” (Bioorg Med Chem Lett, 2023).
# pEC50, pIC50: −log10 of the molar value.
# How the values were obtained:
# [1] = Stability of compound in mouse plasma assessed as compound remaining and measured after 2 hrs; assay type: ADME, cell-free
# [2] = Stability of compound in rat plasma assessed as compound remaining and measured after 2 hrs; assay type: ADME, cell-free
# [3] = Clearance in mouse at 3 mg/kg, iv; assay type: ADME, organism-based; conditions: in vivo
# [4] = Clearance in rat at 2 mg/kg, iv; assay type: ADME, organism-based; conditions: in vivo
# [5] = Volume of distribution at steady state in mouse at 3 mg/kg, iv; assay type: ADME, organism-based; conditions: in vivo, read-out: Vdss
# [6] = Volume of distribution at steady state in rat at 2 mg/kg, iv; assay type: ADME, organism-based; conditions: in vivo, read-out: Vdss
# [7] = Half life in mouse 3 mg/kg, iv; assay type: ADME, organism-based; conditions: in vivo
# [8] = Half life in rat 2 mg/kg, iv; assay type: ADME, organism-based; conditions: in vivo
# [9] = Cmax in mouse at 10 mg/kg, po; assay type: ADME, organism-based; parameters: route po; conditions: in vivo
# [10] = Cmax in rat at 10 mg/kg, po; assay type: ADME, organism-based; parameters: route po; conditions: in vivo
# [11] = AUC in mouse at 10 mg/kg, po; assay type: ADME, organism-based; parameters: route po; conditions: in vivo
# [12] = AUC in rat at 10 mg/kg, po; assay type: ADME, organism-based; parameters: dose 10 mg/kg, route po; conditions: in vivo
# [13] = Oral bioavailability in mouse at 10 mg/kg; assay type: ADME, organism-based; conditions: in vivo
# [14] = Oral bioavailability in rat at 10 mg/kg; assay type: ADME, organism-based; conditions: in vivo
# Human coronavirus OC43 [15] = test: In vivo antiviral activity against HCoV-OC43 infected in mouse assessed as organism survival rate at 50 mg/kg,ip for 7 days; assay type: functional; conditions: time 7 day
# [16] = target: Replicase polyprotein 1ab (Severe acute respiratory syndrome coronavirus 2, UniProt P0DTD1); test: Inhibition of SARS CoV-2 main protease preincubated for 30 min followed by substrate addition and measured after 60 mins by fluorescence assay
# Human coronavirus OC43 [17] = test: microbe, parasite or virus in culture; conditions: Betacoronavirus 1, MRC5, 120 h
# [18] = Stability of compound in human plasma assessed as compound remaining and measured after 2 hrs; assay type: ADME, cell-free
# Human coronavirus OC43 [19] = test: In vivo antiviral activity against HCoV-OC43 infected in mouse assessed as organism survival rate at 25 mg/kg,ip for 7 days; assay type: functional; conditions: time 7 day
# Human coronavirus OC43 [20] = test: In vivo antiviral activity against HCoV-OC43 infected in mouse assessed as organism survival rate at 12.5 mg/kg,ip for 7 days; assay type: functional; conditions: time 7 day
# Human coronavirus OC43 [21] = test: In vivo antiviral activity against HCoV-OC43 infected in mouse assessed as organism survival rate at 12.5 to 50 mg/kg,ip for 7 days; assay type: functional, organism-based; conditions: dose 12.5-50 mg/kg, time 7.0 day
# [22] = Toxicity in mouse infected with HCoV-OC43 assessed as body weight change at 12.5 to 50 mg/kg, ip for 7 days; assay type: organism-based; conditions: in vivo, 168 h, dose 12.5-50 mg/kg, time 7 day
# SARS-CoV-2 = test: microbe, parasite or virus in culture; conditions: Severe acute respiratory syndrome coronavirus 2, Vero, 24 h
Structure (SMILES),Stability [1],Stability [2],clearance [3],clearance [4],Vd [5],Vd [6],half-life [7],half-life [8],Cmax [9],Cmax [10],AUC [11],AUC [12],bioavailability [13],bioavailability [14],pIC50 [16],pEC50 (Human coronavirus OC43 [17]),Stability [18],pEC50 (SARS-CoV-2),other results
CC(C)(C)[C@H](NC(=O)C(F)(F)F)C(=O)N1C[C@H]2[C@@H]([C@H]1C(=O)N[C@H](C#N)C[C@@H]1CCNC1=O)C2(C)C,91%,84%,30.2 mL/min/kg,42 mL/min/kg,0.456 L/kg,1.24 L/kg,42.8 min,46.2 min,2720 nM,2140 nM,3.58 µM·h,2.38 µM·h,32.7%,29.9%,,,,,Activity (Human coronavirus OC43 [15]): 100%
CC(C)(C)[C@H](NC(=O)C(F)(F)F)C(=O)N1C[C@@H]2C[C@@H]2[C@H]1C(=O)N[C@H](C#N)C[C@@H]1CCNC1=O,,,,,,,,,,,,,,,6.45,5.24,,,
CC(C)(C)NC(=O)C(=O)[C@H](C[C@@H]1CCNC1=O)NC(=O)[C@@H]1[C@H]2CCC[C@H]2CN1C(=O)[C@@H](NC(=O)C(F)(F)F)C1CC2(CCC2)C1,,,,,,,,,,,,,,,7.11,6.35,,,
CC(C)(C)NC(=O)C(=O)[C@H](C[C@@H]1CCNC1=O)NC(=O)[C@@H]1[C@H]2CCC[C@H]2CN1C(=O)[C@@H](NC(=O)C(F)(F)F)C1CCCCC1,106%,96%,,2.55 mL/min/kg,,0.929 L/kg,,262 min,4810 nM,3790 nM,33 µM·h,37.4 µM·h,32%,37.4%,7.47,6.84,102%,7.28,Activity (Human coronavirus OC43 [15]): 100%; Activity (Human coronavirus OC43 [19]): 83.3%; Activity (Human coronavirus OC43 [20]): 66.6%; Activity (Human coronavirus OC43 [21]): Dose-Dependent Effect; Activity [22]: Toxic
CC(=O)N[C@H](C(=O)N1C[C@@H]2CCC[C@@H]2[C@H]1C(=O)N[C@H](C#N)C[C@@H]1CCNC1=O)C1CCCCC1,,,,,,,,,,,,,,,6.26,5.56,,,
N#C[C@H](Cc1n[nH]c2ccccc12)NC(=O)[C@@H]1[C@H]2CCC[C@H]2CN1C(=O)[C@@H](NC(=O)C(F)(F)F)C1CCCCC1,,,,,,,,,,,,,,,< 6.00,5.31,,,
N#C[C@H](C[C@@H]1CCNC1=O)NC(=O)[C@@H]1[C@H]2CCC[C@H]2CN1C(=O)[C@@H](NC(=O)C(F)(F)F)C1CCCCC1,100%,,92.2 mL/min/kg,62.7 mL/min/kg,1.01 L/kg,1.34 L/kg,11.3 min,22.7 min,1160 nM,3470 nM,0.478 µM·h,2.92 µM·h,14.2%,57.6%,7.33,6.95,108%,7.37,
N#C[C@H](C[C@@H]1CCNC1=O)NC(=O)[C@@H]1[C@H]2CCC[C@H]2CN1C(=O)[C@@H](NC(=O)C(F)(F)F)c1ccc(F)cc1,,,,,,,,,,,,,,,6.78,6.17,,,
CC(C)(C)NC(=O)C(=O)[C@H](C[C@@H]1CCNC1=O)NC(=O)[C@@H]1[C@H]2CCC[C@H]2CN1C(=O)[C@@H](NC(=O)C(F)(F)F)C1CCCC1,,,5.06 mL/min/kg,,0.911 L/kg,,196 min,,4800 nM,,16.8 µM·h,,30.8%,,,6.38,,,
CC(C)(C)[C@H](NC(=O)C(F)(F)F)C(=O)N1C[C@@H]2CCC[C@@H]2[C@H]1C(=O)N[C@H](C#N)C[C@@H]1CCNC1=O,102%,100%,79.3 mL/min/kg,75.4 mL/min/kg,0.64 L/kg,1.25 L/kg,6.66 min,14.3 min,790 nM,2980 nM,0.553 µM·h,2.31 µM·h,13.3%,52%,7.37,6.87,106%,7.19,
